The text below walks through data of patent US9493420B2, “Quinoline derivatives and uses thereof” (Portland State University, priority 2005, dated 2016).

Structures are written as SMILES.

Data set [1] has as its target T1, recombinant human dopamine (HEK-hDAT) transporter (Homo sapiens, UniProt Q01959).
T1 construct: expressed in transfected cells; host or cells: HEK cells expressing hDAT (HEK-hDAT)
In words: Inhibition of [3H]neurotransmitter uptake, hDAT. It is filed as cell-based. As for the experimental part:
Selected RCQs were tested for inhibition of [^3H]neurotransmitter uptake by the recombinant human serotonin (hSERT), dopamine (HEK-hDAT), and norepinephrine (hNET) transporters by a modification of the method of Eshleman et al. (J. Pharmacol. Exp. Ther., 289(2):877-885, 1999). HEK-hDAT, hSERT, and -hNET expressing cells were grown on tissue culture dishes. After removing the medium and washing the plates with Ca^2+-, Mg^2+-free phosphate buffered saline (PBS), fresh medium was added and the plates were placed in a 25° C. water bath for 5 minutes. Cells were gently lifted from the plates and cell clusters separated by trituration. 50 μL aliquots of the suspended cells were added to assay tubes containing drugs and Krebs-HEPES assay buffer in a final volume of 0.5 mL.
Competition experiments were conducted in triplicate. After a 10 minute preincubation period at 25° C., [^3H]neurotransmitter (20 nM final concentration; [^3H]DA, [^3H]5-HT, or [^3H]NE) were added, and the mixtures incubated for 10 minutes. Reactions were terminated by filtration through Wallac filtermat A filters (presoaked in 0.05% polyethylenimine), using a Tomtec cell harvester. Scintillation fluid was added to each filtered spot, and radioactivity remaining on the filters determined using a Wallac 1205 Betaplate scintillation counter.
Specific uptake was defined as the difference in uptake observed in the absence and presence of 5 μM mazindol (hDAT and hNET) or 5 μM imipramine (hSERT). Inhibition of uptake was determined by non-linear regression using Prism software.

Data set [2] can be described thus: Adverse side effects in treated mice of the 4-day suppressive test. Particulars: 64, 32, 16 mg/kg oral gavage once per day for four days; CF-1 mice. It is filed as in vivo. The text has this: A variation of the 4-day suppressive test described by Peters (Ann. Trop. Med. Parasitol., 69(2):155-171, 1975) was used to test the in vivo effectiveness of RCQ_02 as a treatment for Plasmodium sp. infection. Briefly, P. chabaudi parasites (Mackinnon and Read, Philos. Trans. R. Soc. Lond. B Biol. Sci., 359:965-986, 2004) were collected from a donor animal harboring approximately 20% parasitemia. Sixteen (16) male CF-1 mice at 4-5 weeks of age (approximately 20 g) were infected with approximately 10^7 infected red blood cells via 100 μL tail vein injection. The infected mice were randomly sorted into groups of 4 mice each on day 0. One hour after infection, each group of four mice received 64, 32, 16, or 0 mg/kg RCQ_02 via oral gavage once per day for four days. After the treatment course, the animals were weighed and blood collected for the determination of parasite burden via direct microscopic analysis of Giemsa-stained blood smears. Mice treated with 64 mg/kg RCQ_02 were all cleared of parasites to >99% by day 4.

A further data set is described as follows: Water solubility. Type of data set: physicochemical.

T1 sequence (Q01959 whole entry): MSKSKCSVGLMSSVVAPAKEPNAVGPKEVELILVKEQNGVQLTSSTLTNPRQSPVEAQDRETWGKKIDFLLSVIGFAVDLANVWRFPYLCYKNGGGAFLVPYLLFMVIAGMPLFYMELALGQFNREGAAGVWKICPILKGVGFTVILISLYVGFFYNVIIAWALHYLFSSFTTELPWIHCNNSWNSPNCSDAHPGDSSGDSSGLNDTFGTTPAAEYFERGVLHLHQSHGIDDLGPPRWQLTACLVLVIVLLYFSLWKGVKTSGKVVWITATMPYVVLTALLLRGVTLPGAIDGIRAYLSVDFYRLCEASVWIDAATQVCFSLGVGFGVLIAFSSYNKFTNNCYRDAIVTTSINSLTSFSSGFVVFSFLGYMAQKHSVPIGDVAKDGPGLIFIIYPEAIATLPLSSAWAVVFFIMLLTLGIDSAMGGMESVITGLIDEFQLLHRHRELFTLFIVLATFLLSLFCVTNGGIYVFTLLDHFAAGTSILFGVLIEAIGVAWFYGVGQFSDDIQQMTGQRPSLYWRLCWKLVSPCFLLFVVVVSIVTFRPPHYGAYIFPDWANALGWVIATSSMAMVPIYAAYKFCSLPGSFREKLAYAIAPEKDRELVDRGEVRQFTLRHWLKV

In the case of `CN(CCCNc1ccnc2cc(Cl)ccc12)CCCN1c2ccccc2CCc2ccccc21` [RCQ_02, N′-(7-Chloro-quinolin-4-yl)-N-[3-(10,11-dihydro-dibenzo[b,f]azepin-5-yl)-propyl]-N-methyl-propane-1,3-diamine], the IC50 in data set [1] worked out at 2200 nM. Moreover, the “adverse side effects (weight loss, reduced eating, reduced activity, ruffled ungroomed fur)” value in data set [2] is on record as “none of the treated mice showed any adverse side effects”. In the data set “Water solubility”, the water solubility entry was “relatively low water solubility”.
